US11066392B2, “Inhibitors of indoleamine 2,3-dioxygenase and methods of their use” (BRISTOL-MYERS SQUIBB COMPANY, priority 2017, dated 2021)
Read-outs that look alike come from different tables or passages of the source.

Target: indoleamine 2,3-dioxygenase (IDO) (Homo sapiens, UniProt P14902)
Assay: HeLa cell-based indoleamine 2,3-dioxygenase (IDO) assay (kynurenine production, IFNγ-stimulated)
Settings: HeLa cells
Description: Assessment of inhibitor activity in HeLa cell-based indoleamine 2,3-dioxygenase (IDO) assay. HeLa (ATCC® CCL-2) cells were obtained from the ATCC® and cultured in Dulbecco's Modified Eagle Medium supplemented with 4.5 g/L glucose, 4.5 […] sodium pyruvate (#10-013-CV, Corning), 2 mM L-alanyl-L-glutamine dipeptide (#35050-061, Gibco), 100U/mL penicillin, 100 μg/mL streptomycin (#SV30010, HyClone) and 10% fetal bovine serum (#SH30071.03 HyClone). Cells were maintained in a humidified incubator at 37° C. in 5% CO2. […] After 24 hours, the media was aspirated and replaced with media containing IFNγ (#285-IF/CF, R&D Systems) at a final concentration of 25 ng/mL. A serial dilution of each test compound was added to the cells in a total volume of 200 μL of culture medium. After a further 48 hour incubation, 170 μL of supernatant was transferred from each well to a fresh 96-well plate. 12.1 μL of 6.1N trichloroacetic acid (#T0699, Sigma-Aldrich) was added to each well and mixed, followed by incubation at 65° C. for 20 minutes to hydrolyze N-formylkynurenine, the product of indoleamine 2,3-dioxygenase, to kynurenine. The reaction mixture was then centrifuged for 10 mins at 500×g to sediment the precipitate. 100 μL of the supernatant was transferred from each well to a fresh 96-well plate. 100 μl of 2% (w/v) p-dimethylaminobenzaldehyde (#15647-7, Sigma-Aldrich) in acetic acid (#A6283, Sigma-Aldrich) was added to each well mixed and incubated at room temperature for 20 mins. Kynurenine concentrations were determined by measuring absorbance at 480 nm and calibrating against an L-kynurenine (#K8625, Sigma-Aldrich) standard curve using a SPECTRAMAX® M2e microplate reader (Molecular Devices). The percentage activity at each inhibitor concentration was determined and IC50 values assessed using nonlinear regression. Activity for compounds described herein is provided in Table 1, wherein potency levels are provided as follows: (Potency: IDO IC50: […])

[1] = IFNγ 25 ng/mL, 48 hour incubation, read-out: IDO Hela IC50
[2] = potency class, read-out: Patent Potency Hela IC50 A < 10 nM, B > 10 nM, C > 100 nM

Sequence of indoleamine 2,3-dioxygenase (IDO) (P14902 whole entry): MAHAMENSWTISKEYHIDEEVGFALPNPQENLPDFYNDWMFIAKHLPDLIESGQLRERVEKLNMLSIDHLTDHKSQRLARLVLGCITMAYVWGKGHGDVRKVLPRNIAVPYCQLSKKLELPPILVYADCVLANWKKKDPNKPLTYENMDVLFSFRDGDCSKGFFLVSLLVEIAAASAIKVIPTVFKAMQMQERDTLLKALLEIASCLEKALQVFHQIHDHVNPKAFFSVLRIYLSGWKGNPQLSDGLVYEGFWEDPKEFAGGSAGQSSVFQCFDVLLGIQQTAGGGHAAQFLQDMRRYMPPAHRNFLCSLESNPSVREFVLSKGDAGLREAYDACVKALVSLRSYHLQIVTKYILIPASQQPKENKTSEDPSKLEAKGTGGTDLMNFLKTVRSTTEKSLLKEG

| SMILES | IC50 [1] [nM] | IC50 [2] [nM] |
| --- | --- | --- |
| CC[C@@H](NC(=O)c1ccc(OC)nc1)[C@H]1CC[C@@H](c2cnc3ccccc3c2)CC1 (single isomer, unassigned) [Example 20a, 6-Methoxy-N-(1-(4-(quinolin-3-yl)cyclohexyl)propyl)nicotinamide] | 250 |  |
| CC[C@@H](NC(=O)c1ccc(OC)nc1)[C@H]1CC[C@@H](c2cnc3ccccc3c2)CC1 (single isomer, unassigned) [Example 20b, 6-Methoxy-N-(1-(4-(quinolin-3-yl)cyclohexyl)propyl)nicotinamide] |  | > 100 |
| CC[C@@H](NC(=O)c1ccc(OC)nc1)[C@H]1CC[C@@H](c2cnc3ccccc3c2)CC1 (single isomer, unassigned) [Example 20c, 6-Methoxy-N-(1-(4-(quinolin-3-yl)cyclohexyl)propyl)nicotinamide] | 240 |  |
| CC[C@@H](NC(=O)c1ccc(OC)nc1)[C@H]1CC[C@@H](c2cnc3ccccc3c2)CC1 (single isomer, unassigned) [Example 20d, 6-Methoxy-N-(1-(4-(quinolin-3-yl)cyclohexyl)propyl)nicotinamide] | 60 |  |
| CC[C@@H](NC(=O)c1cnc(OC)nc1)[C@H]1CC[C@@H](c2ccnc(OC)c2F)CC1 (single isomer, unassigned) [Example 21c, N-(1-(4-(3-Fluoro-2-methoxypyridin-4-yl)cyclohexyl)propyl)-2-methoxypyrimidine-5-carboxamide] |  | > 100 |
| CC[C@@H](NC(=O)c1cnc(OC)nc1)[C@H]1CC[C@@H](c2ccnc(OC)c2F)CC1 (single isomer, unassigned) [Example 21d, N-(1-(4-(3-Fluoro-2-methoxypyridin-4-yl)cyclohexyl)propyl)-2-methoxypyrimidine-5-carboxamide] | 380 |  |
| CCC(NC(=O)c1ccc(OC)nc1)C1CCC(c2ccnc(OC)c2C(F)F)CC1 (single isomer, unassigned) [Example 24a, N-(1-((1s,4s)-4-(3-(Difluoromethyl)-2-methoxypyridin-4-yl)cyclohexyl)propyl)-6-methoxynicotinamide] |  | < 10 |
| CCC(NC(=O)c1ccc(OC)nc1)C1CCC(c2ccnc(OC)c2C(F)F)CC1 (single isomer, unassigned) [Example 24b, N-(1-((1s,4s)-4-(3-(Difluoromethyl)-2-methoxypyridin-4-yl)cyclohexyl)propyl)-6-methoxynicotinamide] | 900 |  |
| CCC(NC(=O)c1cnc(OC)nc1)[C@H]1CC[C@@H](c2ccnc(OC)c2C(F)F)CC1 (single isomer, unassigned) [Example 25b, N-(1-((1s,4s)-4-(3-(Difluoromethyl)-2-methoxypyridin-4-yl)cyclohexyl)propyl)-2-methoxypyrimidine-5-carboxamide] | 10 |  |
| CCC(NC(=O)c1ccnc(N2CCOCC2)c1)C1CCC(c2ccnc(OC)c2C(F)F)CC1 (single isomer, unassigned) [Example 26a, N-(1-((1s,4s)-4-(3-(Difluoromethyl)-2-methoxypyridin-4-yl)cyclohexyl)propyl)-2-morpholinoisonicotinamide] |  | > 100 |
| CCC(NC(=O)c1ccnc(N2CCOCC2)c1)C1CCC(c2ccnc(OC)c2C(F)F)CC1 (single isomer, unassigned) [Example 26b, N-(1-((1s,4s)-4-(3-(Difluoromethyl)-2-methoxypyridin-4-yl)cyclohexyl)propyl)-2-morpholinoisonicotinamide] | 10 |  |
| CCC(NC(=O)c1ccc(OC)nc1)C1CCC(c2ccnc(F)c2C)CC1 (single isomer, unassigned) [Example 27a, N-(1-((1s,4s)-4-(2-Fluoro-3-methylpyridin-4-yl)cyclohexyl)propyl)-6-methoxynicotinamide] | 490 |  |
| CCC(NC(=O)c1ccc(OC)nc1)C1CCC(c2ccnc(F)c2C)CC1 (single isomer, unassigned) [Example 27b, N-(1-((1s,4s)-4-(2-Fluoro-3-methylpyridin-4-yl)cyclohexyl)propyl)-6-methoxynicotinamide] |  | < 10 |
| CCC(NC(=O)c1ccc(OC)nc1)C1CCC(c2ccnc(OC)c2C)CC1 (single isomer, unassigned) [Example 28a, 6-Methoxy-N-(1-((1s,4s)-4-(2-methoxy-3-methylpyridin-4-yl)cyclohexyl)propyl)nicotinamide] | 540 |  |
| CCC(NC(=O)c1ccc(OC)nc1)C1CCC(c2ccnc(OC)c2C)CC1 (single isomer, unassigned) [Example 28b, 6-Methoxy-N-(1-((1s,4s)-4-(2-methoxy-3-methylpyridin-4-yl)cyclohexyl)propyl)nicotinamide] |  | < 10 |
| CCC(NC(=O)c1ccc(N)nc1)[C@H]1CC[C@@H](c2ccnc(OC)c2C)CC1 (single isomer, unassigned) [Example 29b, 6-Amino-N-(1-((1s,4s)-4-(2-methoxy-3-methylpyridin-4-yl)cyclohexyl)propyl)nicotinamide] | 10 |  |
| CCC(NC(=O)c1ccc(OC)nc1)C1CCC(c2ccnc(OC(F)F)c2)CC1 (single isomer, unassigned) [Example 30b, N-(1-(4-(2-(Difluoromethoxy)pyridin-4-yl)cyclohexyl)propyl)-6-methoxynicotinamide] | 20 |  |
| CCC(NC(=O)c1ccc(OC)nc1)C1CCC(c2ccnc(OC(F)F)c2)CC1 (single isomer, unassigned) [Example 30d, N-(1-(4-(2-(Difluoromethoxy)pyridin-4-yl)cyclohexyl)propyl)-6-methoxynicotinamide] | 250 |  |

Next, values leading:

| IC50 [1] [nM] | IC50 [2] [nM] | SMILES |
| --- | --- | --- |
|  | > 100 | CC[C@@H](NC(=O)c1ccc(OC)nc1)[C@H]1CC[C@@H](c2ccn(C)c(=O)c2)CC1 (single isomer, unassigned) [Example 31a, 6-Methoxy-N-(1-(4-(1-methyl-2-oxo-1,2-dihydropyridin-4-yl)cyclohexyl)propyl)nicotinamide] |
| 970 |  | CC[C@@H](NC(=O)c1ccc(OC)nc1)[C@H]1CC[C@@H](c2ccn(C)c(=O)c2)CC1 (single isomer, unassigned) [Example 31b, 6-Methoxy-N-(1-(4-(1-methyl-2-oxo-1,2-dihydropyridin-4-yl)cyclohexyl)propyl)nicotinamide] |
| 190 |  | CC[C@@H](NC(=O)c1ccc(OC)nc1)[C@H]1CC[C@@H](c2ccn(C)c(=O)c2)CC1 (single isomer, unassigned) [Example 31c, 6-Methoxy-N-(1-(4-(1-methyl-2-oxo-1,2-dihydropyridin-4-yl)cyclohexyl)propyl)nicotinamide] |
|  | > 100 | CC[C@@H](NC(=O)c1ccc(OC)nc1)[C@H]1CC[C@@H](c2ccn(C)c(=O)c2)CC1 (single isomer, unassigned) [Example 31d, 6-Methoxy-N-(1-(4-(1-methyl-2-oxo-1,2-dihydropyridin-4-yl)cyclohexyl)propyl)nicotinamide] |
|  | > 100 | CCC(NC(=O)c1ccc(OC)nc1)C1CCC(c2cccc(=O)n2C)CC1 (single isomer, unassigned) [Example 32a, 6-Methoxy-N-(1-(4-(1-methyl-6-oxo-1,6-dihydropyridin-2-yl)cyclohexyl)propyl)nicotinamide] |
| 80 |  | CCC(NC(=O)c1ccc(OC)nc1)C1CCC(c2cccc(=O)n2C)CC1 (single isomer, unassigned) [Example 32b, 6-Methoxy-N-(1-(4-(1-methyl-6-oxo-1,6-dihydropyridin-2-yl)cyclohexyl)propyl)nicotinamide] |
| 740 |  | CCC(NC(=O)c1ccc(OC)nc1)C1CCC(c2cccc(=O)n2C)CC1 (single isomer, unassigned) [Example 32c, 6-Methoxy-N-(1-(4-(1-methyl-6-oxo-1,6-dihydropyridin-2-yl)cyclohexyl)propyl)nicotinamide] |
|  | > 100 | CCC(NC(=O)c1ccc(OC)nc1)C1CCC(c2cccc(=O)n2C)CC1 (single isomer, unassigned) [Example 32d, 6-Methoxy-N-(1-(4-(1-methyl-6-oxo-1,6-dihydropyridin-2-yl)cyclohexyl)propyl)nicotinamide] |
| 220 |  | CCC(NC(=O)c1ccc(OC)nc1)[C@H]1CC[C@@H](c2cc(C)ccn2)CC1 (single isomer, unassigned) [Example 45a, (±)-6-methoxy-N-(1-(4-(4-methylpyridin-2-yl)cyclohexyl)propyl)nicotinamide] |
| 620 |  | CCC(NC(=O)c1ccc(OC)nc1)[C@H]1CC[C@@H](c2cc(C)ccn2)CC1 (single isomer, unassigned) [Example 45b, (±)-6-methoxy-N-(1-(4-(4-methylpyridin-2-yl)cyclohexyl)propyl)nicotinamide] |
